Source: ChEMBL document CHEMBL5674860, “Optimized Dual-Glo Assay to identify co-culture-induced drug vulnerabilities in 3D CRC models” (2024)

Legend:
Assay type in all cases: functional, Homo sapiens
Parameters in all cases: dose or concentration left out as unconfirmed
Colon cancer organoid [1] = assay: Optimized Dual-Glo assay to identify co-culture induced drug vulnerabilities using donated chemical probes and chemogenomics kinase set in O06 CRC organoid and F06 CAF mono and co-culture. […] Cell viability is reported both mono and co-culture models.
Colon cancer organoid [2] = assay: Optimized Dual-Glo assay to identify co-culture induced drug vulnerabilities using donated chemical probes and chemogenomics kinase set in O14 CRC organoid and F14 CAF mono and co-culture. […] Cell viability is reported both mono and co-culture models.
Colon cancer organoid [3] = assay: Optimized Dual-Glo assay to identify co-culture induced drug vulnerabilities using donated chemical probes and chemogenomics kinase set in O20 CRC organoid and F20 CAF mono and co-culture. […] Cell viability is reported both mono and co-culture models.
[4] = Culture type Co-Culture, Transduced with Lucferase2-P2A-EGFP lentivirus
[5] = Culture type Co-Culture, Transduced with Renilla-dsRed lentivirus
[6] = Culture type Mono-Culture, Transduced with Lucferase2-P2A-EGFP lentivirus
[7] = Culture type Mono-Culture, Transduced with Renilla-dsRed lentivirus

SMILES | Cell Viability (Colon cancer organoid [1]; [4]) [%] | Cell Viability (Colon cancer organoid [1]; [5]) [%] | Cell Viability (Colon cancer organoid [1]; [6]) [%] | Cell Viability (Colon cancer organoid [1]; [7]) [%] | Cell Viability (Colon cancer organoid [2]; [4]) [%] | Cell Viability (Colon cancer organoid [2]; [5]) [%] | Cell Viability (Colon cancer organoid [2]; [6]) [%] | Cell Viability (Colon cancer organoid [2]; [7]) [%] | Cell Viability (Colon cancer organoid [3]; [4]) [%] | Cell Viability (Colon cancer organoid [3]; [5]) [%] | Cell Viability (Colon cancer organoid [3]; [6]) [%] | Cell Viability (Colon cancer organoid [3]; [7]) [%]
Cc1ccc2nc(CNCCCOc3ccccc3)cc(O)c2c1 [UCSF924] | 107.729 | 156.395 | 110.04 | 105.774 | 83.703 | 116.782 | 86.6693 | 107.391 | 114.798 | 125.381 | 97.5529 | 90.0539
CCOC(=O)c1c(/C(C#N)=C\N)c2ccc(Cl)c(Cl)c2n1C | 122.99 | 97.4073 | 58.62 | 82.6208 | 135.947 | 65.0868 | 144.997 | 76.1592 | 92.1376 | 87.4636 | 163.638 | 89.5418
CC(=O)c1c(NS(C)(=O)=O)c2cc(-c3ccc(Cl)cc3)c(-c3ccc(Cl)cc3Cl)nc2n(C)c1=O [MRL-CB1-NC] | 125.408 | 125.307 | 109.863 | 112.651 | 103.447 | 111.697 | 108.811 | 108.592 | 159.821 | 122.581 | 102.28 | 97.0964
N#Cc1cnc(Nc2cc(NC[C@H]3CNCCO3)c(C(F)(F)F)cn2)cn1 [SRA-737] | 89.9461 | 120.027 | 70.513 | 117.124 | 41.9223 | 191.286 | 52.6101 | 101.86 | 103.278 | 133.202 | 58.7772 | 96.135
COc1cc2c(cc1-c1c(C)noc1C)ncc1[nH]c(=O)n([C@H](C)c3ccccn3)c12 | 43.5488 | 325.273 | 54.5625 | 294.029 | 36.9013 | 317.138 | 43.8564 | 208.742 | 26.0295 | 172.215 | 25.6738 | 101.868
C=CC(=O)Nc1ccc2[nH]c(=O)n(C3CCN(Cc4ccc(-c5nc6cc[nH]c(=O)c6cc5-c5ccccc5)cc4)CC3)c2c1 [Borussertib] | 51.8578 | 132.383 | 55.1299 | 71.4174 | 51.6115 | 159.043 | 54.7811 | 69.4418 | 47.4641 | 149.193 | 22.6881 | 97.2977
CCc1cc2cc(NS(=O)(=O)c3ccc(C#N)cc3)ccc2n(CC)c1=O | 88.2132 | 102.933 | 126.115 | 101.813 | 89.9895 | 94.6782 | 98.1459 | 101.615 | 195.321 | 99.0217 | 112.066 | 92.4545
